Data on nine molecules can be found in patent US9388142B2, “Quinazolinone derivatives as PARP inhibitors” (MERCK PATENT GMBH, priority 2012, dated 2016).

Assay [1] deals with T1, GST-tagged Tankyrase-1 (1023-1327 aa) (Homo sapiens, UniProt O95271).
T1 construct: GST-tagged Tankyrase-1 (1023-1327 aa)
The experiment in a line: biochemical. To be noted: read-out: IC50 tankyrase 1 (enzyme assay). The source says: (§1) aq (aqueous), h (hour), g (gram), L (liter), mg (milligram), MHz (Megahertz), min. (minute), mm (millimeter), mmol (millimole), mM (millimolar), m.p. (melting point), eq (equivalent), mL (milliliter), L (microliter), ACN (acetonitrile), AcOH (acetic acid), CDCl3 (deuterated chloroform), CD3OD (deuterated methanol), CH3CN (acetonitrile), c-hex (cyclohexane), DCC (dicyclohexyl carbodiimide), DCM (dichloromethane), DIC (diisopropyl carbodiimide), DIEA (diisopropylethyl-amine), DMF (dimethylformamide), DMSO (dimethylsulfoxide), DMSO-d6 (deuterated dimethylsulfoxide), EDC (1-(3-dimethyl-amino-propyl)-3-ethylcarbodiimide), ESI (Electro-spray ionization), EtOAc (ethyl acetate), Et2O (diethyl ether), EtOH (ethanol), HATU (dimethylamino-([1,2,3]triazolo[4,5-b]pyridin-3-yloxy)-methylene]-dimethylammonium hexafluorophosphate), HPLC (High Performance Liquid Chromatography), i-PrOH (2-propanol), K2CO3 (potassium carbonate), LC (Liquid Chromatography), MeOH (methanol), MgSO4 (magnesium sulfate), MS (mass spectrometry), MTBE (Methyl tert-butyl ether), NaHCO3 (sodium bicarbonate), NaBH4 (sodium borohydride), NMM (N-methyl morpholine), NMR (Nuclear Magnetic Resonance), PyBOP (benzotriazole-1-yl-oxy-trispyrrolidino-phosphonium hexafluorophosphate), RT (room temperature), Rt (retention time), SPE (solid phase extraction), TBTU (2-(1-H-benzotriazole-1-yl)-1,1,3,3-tetramethyluromium tetrafluoro borate), TEA (triethylamine), TFA (trifluoroacetic acid), THF (tetrahydrofuran), TLC (Thin Layer Chromatography), UV (Ultraviolet). Description of the In Vitro Assays Abbreviations: GST=Glutathione-S-transferase FRET=Fluorescence resonance energy transfer HTRF®=(homogenous time resolved fluorescence) HEPES=4-(2-hydroxyethyl)-1-piperazine ethanesulfonic acid buffer DTT=Dithiothreitol BSA=bovine serum albumin CHAPS=detergent; CHAPS=3[(3-cholamidopropyl)dimethylammonio]-1-propanesulfonate Streptavidin-XLent® is a high grade streptavidin-XL665 conjugate for which the coupling conditions have been optimized to yield a conjugate with enhanced performances for some assays, particularly those requiring high sensitivity.
(§2) The autoparsylation assay is run in two steps: the enzymatic reaction in which GST-tagged Tankyrase-1, resp Tankyrase-2 transferred biotinylated ADP-ribose to itself from biotinylated NAD as co-substrate and the detection reaction where a time resolved FRET between cryptate labelled anti-GST bound to the GST tag of the enzyme and Xlent® labelled-streptavidin bound the biotin-parsylation residue is analysed. The autoparsylation activity was detectable directly via the increase in HTRF signal.
(§3) The autoparsylation assay is performed as 384-well HTRF® (Cisbio, Codolet, France) assay format in Greiner low volume nb 384-well microtiter plates and is used for high throughput screen. […] The reaction is stopped by the addition of 1 μl 50 mM EDTA solution. […] The ratio of the emission signals is determined. The full value used is the inhibitor-free reaction. […] The inhibitory values (IC50) are determined using either the program Symyx Assay Explorer® or Condosseo® from GeneData.

The target of assay [2] is GST-tagged Tankyrase-2 (873-1166 aa) (Homo sapiens, UniProt Q9H2K2). The experiment in a line: biochemical.
GST-tagged Tankyrase-2 (873-1166 aa), sequence (Q9H2K2 873-1166): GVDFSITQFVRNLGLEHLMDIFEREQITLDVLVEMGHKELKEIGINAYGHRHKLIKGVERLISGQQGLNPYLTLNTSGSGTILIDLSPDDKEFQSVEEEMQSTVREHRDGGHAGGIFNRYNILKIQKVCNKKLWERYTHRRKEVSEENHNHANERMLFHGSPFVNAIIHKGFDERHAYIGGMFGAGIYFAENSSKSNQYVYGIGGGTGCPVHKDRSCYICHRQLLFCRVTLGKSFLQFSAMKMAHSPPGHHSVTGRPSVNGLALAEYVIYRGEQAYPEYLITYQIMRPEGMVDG
Description: as §1, §2, §3

For another assay, the system named is tankyrase 1/2. In words: Cellular inhibition of tankyrase: increase of Axin2 level in DLD1 cells (Luminex). In kind it is cell-based. To be noted: read-out: EC50 tankyrase 1/2 (cell assay), 24 hours. The method, then: Measurement of Cellular Inhibition of Tankyrase
Cells of the colon carcinoma cell line DLD1 are plated in 96 well plates with 1.5×10^4 cells per well. Next day, cells are treated with a serial dilution of test compound in seven steps as triplicates with a final DMSO concentration of 0.3%. After 24 hours, cells are lysed in lysis buffer (20 mM Tris/HCl pH 8.0, 150 mM NaCl, 1% NP40, 10% Glycerol) and lysates are cleared by centrifugation through a 96 well filter plate (0.65 μm). […] The amount of isolated Axin2 protein is determined in a Luminex^200 machine (Luminex Corporation) according to the manufacturer's instruction by counting 100 events per well. […] For analysis, the obtained data are normalized against the untreated solvent control and fitted for determination of the EC50 values using the Assay Explorer software (Accelrys).

Another assay has as its system DLD-1-cancer cells. To be noted: cited from earlier work.
The next assay has as its system β-catenin. To be noted: by increasing the levels of the AXIN1 and AXIN2 proteins; cited from earlier work.
In a further assay the target is T2, His-tagged Parp-1 (Homo sapiens, UniProt P09874).
T2 construct: purchased Enzo Life Sciences GmbH, Lörrach, Germany
T2 sequence (P09874 whole entry): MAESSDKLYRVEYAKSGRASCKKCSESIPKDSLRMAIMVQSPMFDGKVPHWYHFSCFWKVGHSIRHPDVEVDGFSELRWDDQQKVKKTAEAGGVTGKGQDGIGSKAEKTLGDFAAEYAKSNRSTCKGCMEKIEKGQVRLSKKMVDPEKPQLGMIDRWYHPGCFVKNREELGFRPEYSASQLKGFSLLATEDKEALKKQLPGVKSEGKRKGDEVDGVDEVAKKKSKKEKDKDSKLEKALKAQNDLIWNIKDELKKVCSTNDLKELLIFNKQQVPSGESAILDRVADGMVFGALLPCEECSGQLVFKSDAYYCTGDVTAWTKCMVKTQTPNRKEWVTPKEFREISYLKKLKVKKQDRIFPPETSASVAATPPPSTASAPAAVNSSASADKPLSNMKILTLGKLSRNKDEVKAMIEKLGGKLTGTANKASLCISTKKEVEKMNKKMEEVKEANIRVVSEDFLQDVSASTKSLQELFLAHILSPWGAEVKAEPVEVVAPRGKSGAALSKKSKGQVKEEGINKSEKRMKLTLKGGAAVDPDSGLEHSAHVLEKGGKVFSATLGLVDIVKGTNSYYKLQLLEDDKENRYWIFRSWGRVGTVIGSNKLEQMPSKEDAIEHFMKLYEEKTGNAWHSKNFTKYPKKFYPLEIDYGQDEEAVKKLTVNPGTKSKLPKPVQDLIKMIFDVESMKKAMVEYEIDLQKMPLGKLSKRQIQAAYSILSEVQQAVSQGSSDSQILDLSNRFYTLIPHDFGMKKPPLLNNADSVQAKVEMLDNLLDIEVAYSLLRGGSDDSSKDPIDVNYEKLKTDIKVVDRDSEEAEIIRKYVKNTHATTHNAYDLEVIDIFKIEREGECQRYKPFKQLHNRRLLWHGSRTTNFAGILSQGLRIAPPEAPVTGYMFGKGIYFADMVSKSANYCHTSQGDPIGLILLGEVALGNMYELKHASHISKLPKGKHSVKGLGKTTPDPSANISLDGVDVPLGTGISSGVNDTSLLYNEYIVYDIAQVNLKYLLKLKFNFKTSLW
The experiment in a line: PARP-1 autoparsylation assay (HTRF). In kind it is biochemical. The source says:
Description of the PARP1 Assay
Biochemical Activity Testing of PARP-1: Autoparsylation Assay
The autoparsylation assay is run in two steps: the enzymatic reaction in which His-tagged Parp-1 transfers biotinylated ADP-ribose/ADP-ribose to itself from biotinylated NAD/NAD as co-substrate and the detection reaction where a time resolved FRET between cryptate labelled anti-His antibody bound to the His tag of the enzyme and Xlent® labelled-streptavidin bound the biotin-parsylation residue is analysed. The autoparsylation activity is detectable directly via the increase in HTRF signal.
The autoparsylation assay is performed as 384-well HTRF® (Cisbio, Codolet, France) assay format in Greiner low volume nb 384-well microtiter plates. 35 nM His-tagged Parp-1 (human, recombinant, Enzo Life Sciences GmbH, Lörrach, Germany) and a mixture of 125 nM bio-NAD (Biolog, Life science Inst., Bremen, Germany) and 800 nM NAD as co-substrate are incubated in a total volume of 6 μl (100 mM Tris/HCl, 4 mM Mg-chloride, 0.01% IGEPAL® CA630, 1 mM DTT, 0.5% DMSO, pH 8, 13 ng/μl activated DNA (BPS Bioscience, San Diego, US)) in the absence or presence of the test compound (10 dilution concentrations) for 150 min at 23° C. The reaction is stopped by the addition of 4 μl of the Stop/detection solution (70 nM SA-Xlent® (Cisbio, Codolet, France), 2.5 nM Anti-His-K® (Eu-labelled anti-His, Cisbio, Codolet, France) in 50 mM HEPES, 400 mM KF, 0.1% BSA, 20 mM EDTA, pH 7.0). After 1 h incubation at room temperature the HTRF iss measured with an Envision multimode reader (Perkin Elmer LAS Germany GmbH) at excitation wavelength 340 nm (laser mode) and emission wavelengths 615 nm and 665 nm. The ratio of the emission signals is determined. The full value used is the inhibitor-free reaction. The pharmacological zero value used is Olaparib (LClabs, Woburn, US) in a final concentration of 1 The inhibitory values (IC50) are determined using either the program Symyx Assay Explorer® or Condosseo® from GeneData.
(In general: In TR-FRET formats the signal depends on donor and acceptor labels being close together.)

The target of assay [3] is T3, GST-tagged Tnks-1 (1023-1327 aa) (Homo sapiens, UniProt O95271).
T3 construct: GST-tagged Tnks-1 (1023-1327 aa, prepared in-house); made in house
T3 sequence (O95271 1023-1327): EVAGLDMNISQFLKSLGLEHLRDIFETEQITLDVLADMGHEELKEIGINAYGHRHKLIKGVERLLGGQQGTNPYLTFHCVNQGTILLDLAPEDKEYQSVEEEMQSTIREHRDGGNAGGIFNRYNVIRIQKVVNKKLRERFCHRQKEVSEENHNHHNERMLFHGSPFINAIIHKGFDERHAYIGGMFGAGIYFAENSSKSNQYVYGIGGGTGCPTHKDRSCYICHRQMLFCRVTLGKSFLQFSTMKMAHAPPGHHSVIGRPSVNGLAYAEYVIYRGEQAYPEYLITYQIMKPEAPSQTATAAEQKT
The experiment in a line: TNKS1 activity ELISA (autoparsylation assay). In kind it is biochemical. As for the experimental part:
(§4) Description of the TNKS1 and TNKS2 ELISA Assay
(§5) Then the activity assay with biotinylated NAD is performed in the absence/presence of the compounds. During the enzymatic reaction GST tagged TNKS transfers biotinylated ADP-ribose to itself from biotinylated NAD as co-substrate. For the detection streptavidin-HRP conjugate is added that binds to the biotinylated TNKS and is thereby captured to the plates. The amount of biotinylated resp. autoparsylated TNKS is detected with a luminescence substrate for HRP. The level of the luminescence signal correlates directly with the amount of autoparsylated TNKS and therefore with activity of TNKS.
(§6) The activity ELISA is performed in 384 well Glutathione coated microtiter plates (Express capture Glutathione coated plate, Biocat, Heidelberg, Germany). The plates are pre-equilibrated with PBS. […] The plates are washed 3 times with PBS-Tween-20. The wells are blocked by incubation at room temperature for 20 minutes with 50 μl blocking buffer (PBS, 0.05% Tween-20, 0.5% BSA). Afterwards the plates are washed 3 times with PBS-Tween-20. […] The reaction is stopped by 3 times washing with PBS-Tween-20. For the detection 50 μl of 20 ng/μl Streptavidin, HRP conjugate (MoBiTec, Gottingen, Germany) in PBS/0.05% Tween-20/0.01% BSA are added and the plates are incubated for 30 minutes at room temperature. After three times washing with PBS-Tween-20 50 μl of SuperSignal ELISA Femto Maximum sensitivity substrate solution (ThermoFisherScientific (Pierce), Bonn, Germany) are added. Following a 1 minute incubation at room temperature luminescence signals are measured with an Envision multimode reader (Perkin Elmer LAS Germany GmbH) at 700 nm. The full value used is the inhibitor-free reaction. […] The inhibitory values (IC50) are determined using either the program Symyx Assay Explorer® or Condosseo® from GeneData.

The target of assay [4] is GST-tagged Tnks-2 (873-1166 aa) (Homo sapiens, UniProt Q9H2K2). The experiment in a line: biochemical. The method, then:
as §4, §5, §6

For assay [5] the following is noted: at 30 μM; cited from earlier work.

Read-outs that look alike come from different tables or passages of the source.

T1 sequence (O95271 1023-1327): as above
GST-tagged Tnks-2 (873-1166 aa), sequence (Q9H2K2 873-1166): as the sequence (Q9H2K2 873-1166) above

A word on the IC50: it is the concentration that inhibits the measured activity by half. Consider `Cc1cc(F)cc2c(=O)[nH]c(-c3ccc(N4CCCN(C)CC4)cc3)nc12` [Compound A32, 6-fluoro-8-methyl-2-[4-(4-methyl-[1,4]diazepan-1-yl)-phenyl]-3H-quinazolin-4-one], for which the IC50 in [1] and in assay [2] was 300 to 3000 nM throughout. Further, the EC50 in the assay on tankyrase 1/2 fell in the range of 300 to 3000 nM.

As to `Oc1nc(-c2ccc(C(F)(F)F)cc2)nc2c1CSCC2` [XAV939], the “growth of DLD-1-cancer cells” value in the assay with DLD-1-cancer cells is on record as “inhibits growth”. The “Wnt-stimulated accumulation of β-catenin” value in the assay on β-catenin is recorded as “blocked”.

Consider `Cc1cc(F)cc2c(=O)[nH]c(-c3ccc(N4CCS(=O)(=O)CC4)cc3)nc12` [Compound A30, 2-[4-(1,1-dioxo-1|6-thiomorpholin-4-yl)-phenyl]-6-fluoro-8-methyl-3H-quinazolin-4-one], for which the IC50 in assay [1] was 300 to 3000 nM; in assay [2], 300 to 3000 nM; on His-tagged Parp-1 it was 300 to 3000 nM; in assay [3], less than 300 nM; in [4], less than 300 nM. Besides, the EC50 with tankyrase 1/2 is less than 300 nM.

For `O=c1[nH]c(-c2ccc3c(c2)OCO3)nc2ccccc12`, in [5], the cellular assay result is “no effect”.

As for `Cc1cccc2c(=O)[nH]c(-c3ccc(C(C)(C)O)cc3)nc12` [Compound A24, 2-[4-(1-hydroxy-1-methyl-ethyl)-phenyl]-8-methyl-3H-quinazolin-4-one], the IC50 (in assay [1]; at His-tagged Parp-1; in [3] (read-out: IC50 TNKS1 ELISA)) was less than 300 nM throughout.

Consider `CC(C)(O)c1ccc(-c2nc3c(F)cccc3c(=O)[nH]2)cc1` [Compound A3, 8-fluoro-2-[4-(1-hydroxy-1-methyl-ethyl)-phenyl]-3H-quinazolin-4-one], for which the IC50 in assay [1] is less than 300 nM; on His-tagged Parp-1, 300 to 3000 nM; in [3] (read-out: IC50 TNKS1 ELISA) it was less than 300 nM.

Regarding `CC(C)(O)c1ccc(-c2nc3ccc(F)cc3c(=O)[nH]2)cc1` [Compound A1, 6-fluoro-2-[4-(1-hydroxy-1-methyl-ethyl)-phenyl]-3H-quinazolin-4-one], the IC50 in assay [1] is less than 300 nM; at His-tagged Parp-1, 300 to 3000 nM; in assay [3] (read-out: IC50 TNKS1 ELISA) it was less than 300 nM.

As to `CC(C)(OCCO)c1ccc(-c2nc3ccc(F)cc3c(=O)[nH]2)cc1` [Compound A7, 6-fluoro-2-{4-[1-(2-hydroxy-ethoxy)-1-methyl-ethyl]-phenyl}-3H-quinazolin-4-one], the IC50 in assay [1] is less than 300 nM; on His-tagged Parp-1, 300 to 3000 nM; in assay [3] (read-out: IC50 TNKS1 ELISA) it was less than 300 nM.

With `CC(C)c1ccc(-c2nc3ccc(F)cc3c(=O)[nH]2)cc1` [Compound A22, 6-fluoro-2-(4-isopropyl-phenyl)-3H-quinazolin-4-one], the 50% inhibitory concentration (IC50) in assay [1] and in [2] was 300 to 3000 nM in each case.
